Values of other authors as cited in patent publication US20260053767A1, “Hepatoprotective Compositions And Methods” (Jemyll, Ltd., priority 2022, published 2026).

Settings: reported: adipose tissue inflammation, insulin resistance, non-alcoholic fatty liver disease; cited from earlier work

## CCCCCCCCCCCC(=O)O [lauric acid]
  effects on the liver and other tissues: significant adverse effects on the liver and other tissues
